Active and inactive are the calls of the source.
How the values were obtained:
[1] = biological target: Human immunodeficiency virus type 1 reverse transcriptase (Human immunodeficiency virus 1) (UniProt Q72547); assay: Inhibition of HIV-1 reverse transcriptase assessed as inhibition of primer extension using 5' 32P-end-labeled 17-mer DNA/40-mer RNA as primer/template up to 1 mM measured after 5 mins by PAGE analysis
[2] = test system: U373-MAGI; assay: Increase in 5-aza-dCTP/dCTP ratio in human U373-MAGI cells at 50 nM preincubated for 2 hrs followed by 5-aza-C addition measured after 4 hrs by LC-MS/MS analysis relative to 5-aza-C; type: functional, cell-based
[3] = test system: U373-MAGI; assay: Reduction in dCTP level in human U373-MAGI cells at 200 nM preincubated for 2 hrs followed by 5-aza-C addition measured after 4 hrs by LC-MS/MS analysis relative to 5-aza-C; type: functional, cell-based
[4] = test system: U373-MAGI; assay: Reduction in dCTP level in human U373-MAGI cells at 200 nM preincubated for 2 hrs followed by 5-aza-dC addition measured after 4 hrs by LC-MS/MS analysis relative to 5-aza-dC; type: functional, cell-based
[5] = test system: U373-MAGI; assay: Increase in 5-aza-dCTP/dCTP ratio in human U373-MAGI cells at 200 nM preincubated for 2 hrs followed by 5-aza-C addition measured after 4 hrs by LC-MS/MS analysis relative to 5-aza-C; type: functional, cell-based
[6] = test system: U373-MAGI; assay: Increase in 5-aza-dCTP/dCTP ratio in human U373-MAGI cells at 200 nM preincubated for 2 hrs followed by 5-aza-dC addition measured after 4 hrs by LC-MS/MS analysis relative to 5-aza-dC; type: functional, cell-based
[7] = Reduction in dATP level in human U373-MAGI cells at 50 nM after 6 hrs by LC-MS/MS analysis; type: functional; design: scale not given: the % may be the effect or the level left
[8] = test system: U373-MAGI; assay: Effect on dRGU-TP level in human U373-MAGI cells at 50 nM preincubated for 2 hrs followed by 5-aza-dC addition measured after 4 hrs by LC-MS/MS analysis; type: functional, cell-based
[9] = test system: U373-MAGI; assay: Reduction in dCTP level in human U373-MAGI cells at 200 nM after 6 hrs by LC-MS/MS analysis; type: functional, cell-based
[10] = test system: Human immunodeficiency virus 1; assay: (§1) Potentiation of 5-Aza-C-induced antiviral activity against VSV-G pseudotyped HIV-1 NL4-3 infected in human U373-MAGI cells assessed as decrease in 5-Aza-C EC50 at 50 nM preincubated for 2 hrs followed by 5-Aza-C addition for 2 hrs and subsequent viral infection measured at 72 hrs post infection by flow cytometric analysis relative to control; type: functional
[11] = test system: U373-MAGI; assay: Effect on 5-aza-dCTP level in human U373-MAGI cells at 50 nM preincubated for 2 hrs followed by 5-aza-dC addition measured after 4 hrs by LC-MS/MS analysis; type: functional, cell-based
[12] = test system: Human immunodeficiency virus 1; assay: Antiviral activity against VSV-G pseudotyped HIV-1 NL4-3 infected in human U373-MAGI cells assessed as reduction in viral infectivity at 50 nM incubated for 4 hrs prior to viral infection measured at 72 hrs post infection by flow cytometric analysis; type: functional, organism-based
[13] = test system: U373-MAGI; assay: Effect on dRGU-TP level in human U373-MAGI cells at 200 nM preincubated for 2 hrs followed by 5-aza-dC addition measured after 4 hrs by LC-MS/MS analysis; type: functional, cell-based
[14] = test system: U373-MAGI; assay: Reduction in 5-aza-dCTP level in human U373-MAGI cells at 50 nM preincubated for 2 hrs followed by 5-aza-C addition measured after 4 hrs by LC-MS/MS analysis; type: functional, cell-based
[15] = test system: U373-MAGI; assay: Reduction in dGTP level in human U373-MAGI cells at 200 nM after 6 hrs by LC-MS/MS analysis; type: functional, cell-based
[16] = test system: U373-MAGI; assay: Increase in 5-aza-dCTP/dCTP ratio in human U373-MAGI cells at 50 nM preincubated for 2 hrs followed by 5-aza-dC addition measured after 4 hrs by LC-MS/MS analysis relative to 5-aza-dC; type: functional, cell-based
[17] = test system: U373-MAGI; assay: Reduction in dATP level in human U373-MAGI cells at 200 nM after 6 hrs by LC-MS/MS analysis; type: functional, cell-based
[18] = test system: U373-MAGI; assay: Effect on 5-aza-dCTP level in human U373-MAGI cells at 200 nM preincubated for 2 hrs followed by 5-aza-dC addition measured after 4 hrs by LC-MS/MS analysis; type: functional, cell-based
[19] = test system: U373-MAGI; assay: Reduction in dTTP level in human U373-MAGI cells at 50 nM after 6 hrs by LC-MS/MS analysis; type: functional, cell-based
[20] = test system: U373-MAGI; assay: Reduction in dGTP level in human U373-MAGI cells at 50 nM after 6 hrs by LC-MS/MS analysis; type: functional, cell-based
[21] = Cytotoxicity against human U373-MAGI cells at 50 nM measured at 72 hrs by Celltiter-Glo luminescent cell viability assay; type: cell-based; conditions: 0.05 µM
[22] = test system: U373-MAGI; assay: Reduction in dCTP level in human U373-MAGI cells at 50 nM preincubated for 2 hrs followed by 5-aza-dC addition measured after 4 hrs by LC-MS/MS analysis relative to 5-aza-dC; type: functional, cell-based
[23] = test system: U373-MAGI; assay: Reduction in dCTP level in human U373-MAGI cells at 50 nM after 6 hrs by LC-MS/MS analysis; type: functional, cell-based
[24] = test system: U373-MAGI; assay: Reduction in dTTP level in human U373-MAGI cells at 200 nM after 6 hrs by LC-MS/MS analysis; type: functional, cell-based
[25] = test system: U373-MAGI; assay: Reduction in dRGU-TP level in human U373-MAGI cells at 200 nM preincubated for 2 hrs followed by 5-aza-C addition measured after 4 hrs by LC-MS/MS analysis; type: functional, cell-based
[26] = test system: U373-MAGI; assay: Reduction in dCTP level in human U373-MAGI cells at 50 nM preincubated for 2 hrs followed by 5-aza-C addition measured after 4 hrs by LC-MS/MS analysis; type: functional, cell-based
[27] = test system: U373-MAGI; assay: Reduction in 5-aza-dCTP level in human U373-MAGI cells at 200 nM preincubated for 2 hrs followed by 5-aza-C addition measured after 4 hrs by LC-MS/MS analysis; type: functional, cell-based
[28] = test system: U373-MAGI; assay: Reduction in dRGU-TP level in human U373-MAGI cells at 50 nM preincubated for 2 hrs followed by 5-aza-C addition measured after 4 hrs by LC-MS/MS analysis; type: functional, cell-based
[29] = test system: U373-MAGI; assay: Reduction in dCTP level in human U373-MAGI cells at 2.5 nM preincubated for 2 hrs followed by 5-aza-dC addition measured after 4 hrs by LC-MS/MS analysis relative to 5-aza-dC; type: functional, cell-based
[30] = test system: U373-MAGI; assay: Reduction in dGTP level in human U373-MAGI cells at 25 nM after 6 hrs by LC-MS/MS analysis; type: functional, cell-based
[31] = test system: U373-MAGI; assay: Increase in 5-aza-dCTP/dCTP ratio in human U373-MAGI cells at 2.5 nM preincubated for 2 hrs followed by 5-aza-dC addition measured after 4 hrs by LC-MS/MS analysis relative to 5-aza-dC; type: functional, cell-based
[32] = test system: U373-MAGI; assay: Reduction in dCTP level in human U373-MAGI cells at 25 nM preincubated for 2 hrs followed by 5-aza-dC addition measured after 4 hrs by LC-MS/MS analysis relative to 5-aza-dC; type: functional, cell-based
[33] = test system: U373-MAGI; assay: Reduction in dTTP level in human U373-MAGI cells at 2.5 nM after 6 hrs by LC-MS/MS analysis; type: functional, cell-based
[34] = test system: U373-MAGI; assay: Effect on dRGU-TP level in human U373-MAGI cells at 25 nM preincubated for 2 hrs followed by 5-aza-dC addition measured after 4 hrs by LC-MS/MS analysis; type: functional, cell-based
[35] = test system: U373-MAGI; assay: Reduction in 5-aza-dCTP level in human U373-MAGI cells at 25 nM preincubated for 2 hrs followed by 5-aza-C addition measured after 4 hrs by LC-MS/MS analysis; type: functional, cell-based
[36] = test system: U373-MAGI; assay: Effect on 5-aza-dCTP level in human U373-MAGI cells at 25 nM preincubated for 2 hrs followed by 5-aza-dC addition measured after 4 hrs by LC-MS/MS analysis; type: functional, cell-based
[37] = test system: U373-MAGI; assay: Reduction in dCTP level in human U373-MAGI cells at 25 nM after 6 hrs by LC-MS/MS analysis; type: functional, cell-based
[38] = test system: U373-MAGI; assay: Reduction in dTTP level in human U373-MAGI cells at 25 nM after 6 hrs by LC-MS/MS analysis; type: functional, cell-based
[39] = test system: U373-MAGI; assay: Reduction in dCTP level in human U373-MAGI cells at 2.5 nM preincubated for 2 hrs followed by 5-aza-C addition measured after 4 hrs by LC-MS/MS analysis; type: functional, cell-based
[40] = test system: U373-MAGI; assay: Effect on dRGU-TP level in human U373-MAGI cells at 2.5 nM preincubated for 2 hrs followed by 5-aza-dC addition measured after 4 hrs by LC-MS/MS analysis; type: functional, cell-based
[41] = test system: U373-MAGI; assay: Reduction in dCTP level in human U373-MAGI cells at 25 nM preincubated for 2 hrs followed by 5-aza-C addition measured after 4 hrs by LC-MS/MS analysis relative to 5-aza-C; type: functional, cell-based
[42] = test system: U373-MAGI; assay: Reduction in dGTP level in human U373-MAGI cells at 2.5 nM after 6 hrs by LC-MS/MS analysis; type: functional, cell-based
[43] = Cytotoxicity against human U373-MAGI cells at 2.5 nM measured at 72 hrs by Celltiter-Glo luminescent cell viability assay; type: cell-based; conditions: 0.0025 µM
[44] = test system: U373-MAGI; assay: Increase in 5-aza-dCTP/dCTP ratio in human U373-MAGI cells at 2.5 nM preincubated for 2 hrs followed by 5-aza-C addition measured after 4 hrs by LC-MS/MS analysis relative to 5-aza-C; type: functional, cell-based
[45] = test system: U373-MAGI; assay: Reduction in dATP level in human U373-MAGI cells at 25 nM after 6 hrs by LC-MS/MS analysis; type: functional, cell-based
[46] = test system: Human immunodeficiency virus 1; assay: as §1, with “at 2.5” for “at 50”; type: functional
[47] = test system: U373-MAGI; assay: Reduction in 5-aza-dCTP level in human U373-MAGI cells at 2.5 nM preincubated for 2 hrs followed by 5-aza-C addition measured after 4 hrs by LC-MS/MS analysis; type: functional, cell-based
[48] = test system: Human immunodeficiency virus 1; assay: Antiviral activity against VSV-G pseudotyped HIV-1 NL4-3 infected in human U373-MAGI cells assessed as reduction in viral infectivity at 2.5 nM incubated for 4 hrs prior to viral infection measured at 72 hrs post infection by flow cytometric analysis; type: functional, organism-based
[49] = test system: U373-MAGI; assay: Reduction in dCTP level in human U373-MAGI cells at 2.5 nM after 6 hrs by LC-MS/MS analysis; type: functional, cell-based
[50] = Reduction in dATP level in human U373-MAGI cells at 2.5 nM after 6 hrs by LC-MS/MS analysis; type: functional; design: scale not given: the % may be the effect or the level left
[51] = test system: U373-MAGI; assay: Increase in 5-aza-dCTP/dCTP ratio in human U373-MAGI cells at 25 nM preincubated for 2 hrs followed by 5-aza-dC addition measured after 4 hrs by LC-MS/MS analysis relative to 5-aza-dC; type: functional, cell-based
[52] = test system: U373-MAGI; assay: Effect on 5-aza-dCTP level in human U373-MAGI cells at 2.5 nM preincubated for 2 hrs followed by 5-aza-dC addition measured after 4 hrs by LC-MS/MS analysis; type: functional, cell-based
[53] = test system: U373-MAGI; assay: Reduction in dRGU-TP level in human U373-MAGI cells at 25 nM preincubated for 2 hrs followed by 5-aza-C addition measured after 4 hrs by LC-MS/MS analysis; type: functional, cell-based
[54] = test system: U373-MAGI; assay: Reduction in dRGU-TP level in human U373-MAGI cells at 2.5 nM preincubated for 2 hrs followed by 5-aza-C addition measured after 4 hrs by LC-MS/MS analysis; type: functional, cell-based
[55] = test system: U373-MAGI; assay: Increase in 5-aza-dCTP/dCTP ratio in human U373-MAGI cells at 25 nM preincubated for 2 hrs followed by 5-aza-C addition measured after 4 hrs by LC-MS/MS analysis relative to 5-aza-C; type: functional, cell-based

Nc1ncn([C@H]2C[C@H](O)[C@@H](COP(=O)(O)OP(=O)(O)OP(=O)(O)O)O2)c(=O)n1
inactive: inhibition [1]

Nc1nc(Cl)nc2c1ncn2[C@@H]1O[C@H](CO)[C@@H](O)[C@@H]1F [CLOFARABINE]
active: Activity [3] | Activity [4] | Activity [6] | Activity [9] | Activity [12] | Activity [15] | Activity [16] | Activity [17] | Activity [22] | Activity [25] | Activity [26] | Activity [27]
30%: Activity [7]
2.5: fold change (FC) [10]
Non-toxic: Activity [21]
inactive: Activity [2] | Activity [5] | Activity [8] | Activity [11] | Activity [13] | Activity [14] | Activity [18] | Activity [19] | Activity [20] | Activity [23] | Activity [24] | Activity [28]

Nc1ccn([C@@H]2O[C@H](CO)[C@@H](O)C2(F)F)c(=O)n1 [GEMCITABINE]
inactive: Activity [33] | Activity [34] | Activity [36] | Activity [38] | Activity [40] | Activity [42] | Activity [44] | Activity [47] | Activity [49] | Activity [52] | Activity [54] | Activity [55]
2.5: fold change (FC) [46]
active: Activity [29] | Activity [30] | Activity [31] | Activity [32] | Activity [35] | Activity [37] | Activity [39] | Activity [41] | Activity [45] | Activity [48] | Activity [51] | Activity [53]
Non-toxic: Activity [43]
30%: Activity [50]
